Assay [1] relates to bruxism patient. Briefly: Temporal muscle activity during sleep in bruxism patients, placebo or proton pump inhibitor (Experiment 2, double-blind). Format: in vivo, human. The note with it: 10 mg. The procedure: A catheter with a pH electrode was inserted into the test subject's esophagus 5 cm above the upper portion of the lower esophageal sphincter and pH was measured while the subject was asleep, while a disposable (bipolar) electrode was affixed to the skin at the front of the temporal muscle on one side. An amount of muscle activity during sleep was measured from 2.5 hours after falling asleep for a 40-minute period. At the same time, video and sound recordings were made that confirmed bruxism during sleep. […] In this Figure, when stable pH levels in the esophagus declined sharply, this was defined as an “decreased esophageal pH episode”. Measurement of temporal muscle activity during sleep in the bruxsim patient medicated with placebo or the proton pump inhibitor In a double-blind trial, test subjects were assigned to either medication with placebo or the proton pump inhibitor [sodium salt of rabeprazole (10 mg; brand name: […] (registered trademark), Eisai Co., Ltd.)] and, according to the method used in experiment 1, the amount of muscle activity during sleep in the front of the temporal muscle on one side was measured for a 4-hour period between 1 and 5 hours after falling asleep. Video and sound recordings were made at the same time that confirmed bruxism during sleep. […] A paired t test was used to test for significance, with P<0.05 defined as indicating a statistically significant difference.

Assay [2] concerns bruxism patient. Put plainly: Frequency of bruxism episodes during sleep in bruxism patients, placebo, PPI, H2RA or the combination (Experiment 3, double-blind). Format: in vivo, human. As to conditions: FIG. 3; bruxism patients n=9; 10 mg of each drug; 4-hour period between 1 and 5 hours after falling asleep; vs placebo; paired t test, P<0.05 significant. How it is done: A catheter with a pH electrode was inserted into the test subject's esophagus 5 cm above the upper portion of the lower esophageal sphincter and pH was measured while the subject was asleep, while a disposable (bipolar) electrode was affixed to the skin at the front of the temporal muscle on one side. An amount of muscle activity during sleep was measured from 2.5 hours after falling asleep for a 40-minute period. At the same time, video and sound recordings were made that confirmed bruxism during sleep. […] In this Figure, when stable pH levels in the esophagus declined sharply, this was defined as an “decreased esophageal pH episode”. […] According to the methods used in experiment 1, the amount of muscle activity during sleep in the front of the temporal muscle on one side was measured for a 4-hour period between 1 and 5 hours after falling asleep. […]

Counter-ions that a name gives are not always drawn.

As to `COCCCOc1ccnc(C[S+]([O-])c2nc3ccccc3[nH]2)c1C` (stereo not shown) [proton pump inhibitor, sodium salt of rabeprazole], the “frequency of jaw motion accompanying rhythmical temporal muscle activity (bruxism episode)” value in the assay on bruxism patient [1] (FIG. 2(A), one bruxism patient, 4-hour period between 1 and 5 hours after falling asleep, compared to placebo) is “substantial decline”. Moreover, the “frequency of bruxism episodes per hour of sleep” value in the assay on bruxism patient [1] (FIG. 2(B), bruxism patients n=8, vs placebo, paired t test, ****P<0.0001) is reported as “significantly reduces”; in the assay on bruxism patient [2] it was “significant reduction”. Moreover, the “duration of bruxism episodes per hour of sleep” value with bruxism patient [1] (FIG. 2(B), bruxism patients n=8, vs placebo, paired t test, ***P<0.001) is recorded as “significantly reduces”.

For the origin of these results see US7608625B2, “Method for treating bruxism and bruxism-related diseases” (Eisai R & D Management Co., Ltd., priority 2003, dated 2009).
